Experimental data as given in publication PMC7172207 (Bioorganic & Medicinal Chemistry Letters, 2019).

How the values were obtained:
DENV2 [1] = experiment: Immunofluorescence assay of DENV2 infectivity; assay type: cell-based, Dengue virus type 2 (strain 16681); conditions: for rate of NS4B-positive cells: Vero E6, DENV2-infected, 96 h
DENV2 [2] = experiment: Anti-DENV2 activity in human lung epithelial A549 cells; assay type: cell-based, Dengue virus type 2; conditions: DENV2 MOI 0.01, 120 h

SMILES: CC[C@H](C)[C@H](NC(=O)[C@H]1O[C@@H](O[C@H]2[C@@H](O[C@H]3CC[C@]4(C)[C@H]5C(=O)C=C6[C@@H]7C[C@@](C)(C(=O)N[C@H](C(=O)O)[C@@H](C)CC)CC[C@]7(C)CC[C@@]6(C)[C@]5(C)CC[C@H]4C3(C)C)O[C@H](C(=O)N[C@H](C(=O)O)[C@@H](C)CC)[C@@H](O)[C@@H]2O)[C@H](O)[C@@H](O)[C@@H]1O)C(=O)O [Compound 13]
- rate of NS4B-positive cells (DENV2 [1]; 0.1 μM compound): 37.2%
- rate of NS4B-positive cells (DENV2 [1]; 1 μM compound): 29.4%
- rate of NS4B-positive cells (DENV2 [1]; 10 μM compound): 1.6%
- anti-DENV2 activity in A549 cells (in words) (DENV2 [2]): potent anti-DENV2 activity

SMILES: CC1(C)[C@@H](O[C@H]2O[C@H](C(=O)O)[C@@H](O)[C@H](O)[C@H]2O[C@@H]2O[C@H](C(=O)O)[C@@H](O)[C@H](O)[C@H]2O)CC[C@]2(C)[C@H]3C(=O)C=C4[C@@H]5C[C@@](C)(C(=O)O)CC[C@]5(C)CC[C@@]4(C)[C@]3(C)CC[C@@H]12 [Compound 1, Glycyrrhizic acid, reference compound]
- TI (CC50/IC50) (DENV2 [1]; Vero E6 cells): ˃12.3

SMILES: CC1(C)[C@@H](O[C@H]2O[C@H](C(=O)N[C@@H](Cc3ccccc3)C(=O)O)[C@@H](O)[C@H](O)[C@H]2O[C@@H]2O[C@H](C(=O)N[C@@H](Cc3ccccc3)C(=O)O)[C@@H](O)[C@H](O)[C@H]2O)CC[C@]2(C)[C@H]3C(=O)C=C4[C@@H]5C[C@@](C)(C(=O)N[C@@H](Cc6ccccc6)C(=O)O)CC[C@]5(C)CC[C@@]4(C)[C@]3(C)CC[C@@H]12 [Compound 14]
- anti-DENV2 activity (in words) (DENV2 [1]; Vero E6 cells, CPE test and NS4B-positive cells): dropped the anti-DENV activity

SMILES: COC(=O)[C@H](CCSC)NC(=O)[C@H]1O[C@@H](O[C@H]2[C@@H](O[C@H]3CC[C@]4(C)[C@H]5C(=O)C=C6[C@@H]7C[C@@](C)(C(=O)N[C@@H](CCSC)C(=O)OC)CC[C@]7(C)CC[C@@]6(C)[C@]5(C)CC[C@H]4C3(C)C)O[C@H](C(=O)N[C@@H](CCSC)C(=O)OC)[C@@H](O)[C@@H]2O)[C@H](O)[C@@H](O)[C@@H]1O [Compound 6]
- TI (CC50/IC50) (DENV2 [1]; Vero E6 cells): ˃22.2
